This note sets out measurements from patent publication US9976183B2, “Biomarkers for cancers responsive to modulators of HEC1 activity” (TAIVEX THERAPEUTICS CORPORATION, priority 2011, dated 2018).

Structures are written as SMILES.

Common to all, as to assay type: cell-based
In one assay the test system is A549. The assay can be described thus: Drug sensitivity, MTS cell viability assay (GI50). The conditions noted are these: Homo sapiens, A549, 96 hours. On the procedure:
(§1) Drug sensitivity: Cell lines were screened for drug sensitivity by treatment with specified drugs 24 hours after seeding in appropriate seeding numbers into 96 well plates containing low glucose DME with 10% FBS. The drug was added to the plate in triplicate wells, and the cells are incubated in drug treated medium for 96 hours before cell viability was determined by MTS assay using CellTiter 96® Aqueous non-radioactive cell proliferation assay system (Promega, Madison, Wis. 53711 USA). The MTS assay was performed according to the manufacturer's instructions. Optical density was measured using a Bio-Tek 340 spectrophotometer (Bio-Tek, Winooski, Vt. 05404) and optical readings were then processed in Excel (Microsoft, Redmond, Wash. 98052-7329) and GraphPad Prism 5 linear regression software (GraphPad Software, La Jolla, Calif. 92037 USA) to determine concentration-response curves for calculating relative GI50s. […] The % growth inhibition of the test drug on cells were calculated as: [1−(Test Value)/(Control Value)]×100; these values were used to plot concentration-response curves, and then analyzed with linear regression software.

A further assay concerns BT474. The assay can be described thus: Drug sensitivity, MTS cell viability assay (GI50). The conditions noted are these: Homo sapiens, BT-474, BT474, 96 hours. The procedure:
as §1
For orientation: Formazan colour is commonly taken as a measure of viable cells.

For a further assay, the system named is COLO205. The assay can be described thus: Drug sensitivity, MTS cell viability assay (GI50). The conditions noted are these: Homo sapiens, COLO 205, COLO205, 96 hours. The procedure:
as §1

For the next assay, the system named is HCC1954. The assay can be described thus: Drug sensitivity, MTS cell viability assay (GI50). The following applies: Homo sapiens, HCC1954, 96 hours. On the procedure:
as §1

The subject of another assay is HCT116. The assay can be described thus: Drug sensitivity, MTS cell viability assay (GI50). The following applies: Homo sapiens, HCT-116, HCT116, 96 hours. On the procedure:
as §1

For the next assay, the system named is HeLa. Kind of assay: Drug sensitivity, MTS cell viability assay (GI50). The conditions noted are these: Homo sapiens, 96 hours. The procedure:
as §1

In another assay the test system is Hep3B. Kind of assay: Drug sensitivity, MTS cell viability assay (GI50). The procedure:
as §1

The subject of assay [1] is HepG2. Kind of assay: Drug sensitivity, MTS cell viability assay (GI50). The conditions noted are these: Homo sapiens; HepG2, 96 hours, MTS. On the procedure: as §1
The test system of the next assay is Hs578T. Kind of assay: Drug sensitivity, MTS cell viability assay (GI50). The conditions noted are these: Homo sapiens, Hs-578T, 96 hours. The procedure: as §1
In the next assay the test system is KG-1. The assay can be described thus: Drug sensitivity, MTS cell viability assay (GI50). The following applies: Homo sapiens, KG-1, 96 hours. The procedure: as §1
Another assay has as its system MCF7. Kind of assay: Drug sensitivity, MTS cell viability assay (GI50). The following applies: Homo sapiens, MCF7, 96 hours. On the procedure: as §1
The test system of a further assay is MDA-MB-453. Kind of assay: Drug sensitivity, MTS cell viability assay (GI50). The conditions noted are these: Homo sapiens, MDA-MB-453, 96 hours. The procedure: as §1
For another assay, the system named is MOLM-13. The assay can be described thus: Drug sensitivity, MTS cell viability assay (GI50). The following applies: Homo sapiens, MOLM-13, 96 hours. On the procedure:
as §1

The next assay deals with MV4-11. Kind of assay: Drug sensitivity, MTS cell viability assay (GI50). The following applies: Homo sapiens, MV4-11, 96 hours. The procedure: as §1
A further assay concerns NCI-H520. The assay can be described thus: Drug sensitivity, MTS cell viability assay (GI50). The following applies: Homo sapiens, NCI-H520, 96 hours. The procedure:
as §1

The next assay has as its system PC3. The assay can be described thus: Drug sensitivity, MTS cell viability assay (GI50). The conditions noted are these: Homo sapiens, PC-3, PC3, 96 hours. The procedure:
as §1

For the next assay, the system named is PLC/PRF/5. The assay can be described thus: Drug sensitivity, MTS cell viability assay (GI50). The following applies: Homo sapiens, PLC/PRF/5, 96 hours. The procedure:
as §1

A further assay deals with RPMI8226. The assay can be described thus: Drug sensitivity, MTS cell viability assay (GI50). The following applies: Homo sapiens, RPMI-8226, RPMI8226, 96 hours. On the procedure: as §1
The next assay relates to RS4:11. The assay can be described thus: Drug sensitivity, MTS cell viability assay (GI50). The following applies: Homo sapiens, RS4:11, 96 hours. The procedure: as §1
In another assay the test system is T47D. Kind of assay: Drug sensitivity, MTS cell viability assay (GI50). The following applies: Homo sapiens, 96 hours. The procedure: as §1
For another assay, the system named is U-937. The assay can be described thus: Drug sensitivity, MTS cell viability assay (GI50). The following applies: Homo sapiens, U-937, 96 hours. The procedure:
as §1

For the next assay, the system named is U2OS. Kind of assay: Drug sensitivity, MTS cell viability assay (GI50). The conditions noted are these: Homo sapiens, 96 hours. On the procedure: as §1
A further assay concerns ZR-75-1. Kind of assay: Drug sensitivity, MTS cell viability assay (GI50). The following applies: Homo sapiens, ZR-75-1, 96 hours. The procedure:
as §1

The test system of another assay is ZR-75-30. Kind of assay: Drug sensitivity, MTS cell viability assay (GI50). The following applies: Homo sapiens, ZR-75-30, 96 hours. On the procedure:
as §1

The subject of assay [2] is HepG2. Kind of assay: Synergy of Hec1 inhibitor with cytotoxic drug (combination index, MTS). Also noted: key: CI = (CA,X/ICx,A)+(CB,X/ICx,B) at x% drug effect. On the procedure: (§2) Synergy: GI50s for selected drugs were determined and used to calculate a concentration ratio for use synergy assays with Hec1 inhibitors. Cells were treated with drugs 24 hours after being seeded in appropriate seeding numbers into 96 well plates containing low glucose DME with 10% FBS. […] Cell viability was determined by MTS assay using a CellTiter 96® Aqueous non-radioactive cell proliferation assay system (Promega, Madison, Wis. 53711 USA) according to the manufacturer's instructions. Optical density was determined using a Bio-Tek 340 spectrophotometer (Bio-Tek, Winooski, Vt. 05404) and were then processed using Excel (Microsoft, Redmond, Wash. 98052-7329) and GraphPad Prism 5 linear regression software (GraphPad Software, La Jolla, Calif. 92037 USA) to determine concentration-response curves for calculating relative GI50s. Synergy was determined by calculating a combination index value using the formula CI (combination index)=(CA,X/ICx,A)+(CB,X/ICx,B), where CA,X and CB,X are the concentrations of drug A and drug B used in combination to achieve x % drug effect. ICx,A and ICx,B are the concentrations for single agents to achieve the same effect.
(§3) Hec1 inhibitor-responsive cancer cells used for screening were treated with a mixture of Hec1 inhibitor and select anti-cancer drug at appropriate concentration ratios and evaluated for cell viability.

Another assay has as its system PCL/PRF/5. The description is as above. Also noted: key: CI = (CA,X/ICx,A)+(CB,X/ICx,B) at x% drug effect. On the procedure: as §2, §3
Where [3] appears, read: in combination with doxorubicin.

As for `COc1ccc(Oc2cc(C)c(-c3csc(NC(=O)c4ccncc4)n3)c(C)c2)cc1` [compound 101001, N-(4-(4-(4-methoxyphenoxy)-2,6-dimethylphenyl)thiazol-2-yl)isonicotinamide], the GI50 – broadly, the concentration giving 50% growth inhibition – is over 10000 nM in the assay with A549; 85.7 nM in the assay with BT474; 40.2 nM in the assay with COLO205; over 10000 nM in the assay on HCC1954; 38.9 nM in the assay on HCT116; 15.8 nM in the assay with HeLa. In addition, the GI50 with Hep3B (96 hours, listed as 110001) turned out to be 104 nM; in the assay on Hep3B (Homo sapiens, 96 h) it was 96.1 nM; in the assay on HepG2 [1], 273 nM; in the assay on Hs578T, 143 nM; with KG-1, 28.9 nM; with MCF7 it was 63.7 nM. Also, the GI50 in the assay on MDA-MB-453 amounted to 23.6 nM; in the assay on MOLM-13, 315 nM; with MV4-11 it was 231 nM; in the assay with NCI-H520, 67.9 nM; in the assay on PC3, 60 nM; in the assay with PLC/PRF/5, 91.6 nM. The GI50 came out at 27.2 nM in the assay on RPMI8226; 254 nM in the assay on RS4:11; 17.1 nM with T47D; 22 nM in the assay on U-937; 139 nM with U2OS; 79.6 nM in the assay with ZR-75-1. It took 76.8 nM to inhibit growth in the assay with ZR-75-30 by half (GI50).
For the compound `COCCOc1cnc(Sc2cc(C)c(-c3csc(NC(=O)c4ccncc4)n3)c(C)c2)cn1` [compound 110095, N-(4-(4-(5-(2-methoxyethoxy)pyrazin-2-ylthio)-2,6-dimethylphenyl)thiazol-2-yl)isonicotinamide], the “Combination Index” value in the assay with HepG2 [2] (in combination with KX01) was 2.32; with HepG2 [2] (setting [3]), 3.00; in the assay on HepG2 [2] (in combination with sorafenib), 1.88; with HepG2 [2] (in combination with topotecan), 3.03; in the assay with PCL/PRF/5 (in combination with KX01), 1.08; in the assay on PCL/PRF/5 (in combination with Taxol), 0.81. Also, the results for the “Combination Index” value in the assay on PCL/PRF/5 (setting [3]), with PCL/PRF/5 (in combination with sorafenib) and in the assay on PCL/PRF/5 (in combination with topotecan) were 2.31, 1.41 and 2.83, respectively.
